Assay: molar heat capacity at constant pressure
Details: 101.33 kPa, Small (less than 1 g) adiabatic calorimetry

N.NS(=O)(=O)O [ammonium sulfamate]
Details	molar heat capacity at constant pressure [J/K/mol]
254.34 K, Crystal 2	145.58
254.54 K, Crystal 1	146.89
254.58 K, Crystal 1	148.65
255.05 K, Crystal 1	140.26
255.16 K, Crystal 1	140.01
255.17 K, Crystal 1	141.54
255.56 K, Crystal 1	139.82
255.74 K, Crystal 1	139.92
256 K, Crystal 1	139.89
256.07 K, Crystal 1	140.15
256.32 K, Crystal 1	140.33
256.58 K, Crystal 1	140.36
256.83 K, Crystal 1	140.15
256.9 K, Crystal 1	140.4
257.09 K, Crystal 1	140.26
257.48 K, Crystal 1	140.61
257.6 K, Crystal 1	140.56
257.65 K, Crystal 1	140.39
258.06 K, Crystal 1	140.66
258.1 K, Crystal 1	140.61
258.48 K, Crystal 1	140.51
258.61 K, Crystal 1	140.63
258.65 K, Crystal 1	140.92
259.12 K, Crystal 1	140.78
259.23 K, Crystal 1	140.91
259.3 K, Crystal 1	140.91
259.63 K, Crystal 1	141.01
259.81 K, Crystal 1	141.1
260 K, Crystal 1	141.26
260.12 K, Crystal 1	141.07
260.15 K, Crystal 1	141.06
260.39 K, Crystal 1	141.17
260.66 K, Crystal 1	141.25
260.95 K, Crystal 1	141.34
260.97 K, Crystal 1	141.54
261.17 K, Crystal 1	141.38
261.55 K, Crystal 1	141.5
261.68 K, Crystal 1	141.47
261.77 K, Crystal 1	141.54
262.13 K, Crystal 1	141.71
262.19 K, Crystal 1	141.78
262.61 K, Crystal 1	141.89
262.71 K, Crystal 1	141.89
262.73 K, Crystal 1	141.96
263.3 K, Crystal 1	141.95
263.44 K, Crystal 1	142.09
264.27 K, Crystal 1	142.38
265.1 K, Crystal 1	142.55
265.93 K, Crystal 1	142.78
266.76 K, Crystal 1	143.13
267.59 K, Crystal 1	143.22
268.42 K, Crystal 1	143.39
269.25 K, Crystal 1	143.62
270 K, Crystal 1	144.09
270.08 K, Crystal 1	143.91
270.91 K, Crystal 1	144.17
271.74 K, Crystal 1	144.43
272.58 K, Crystal 1	144.63
273.41 K, Crystal 1	144.84
274.25 K, Crystal 1	145.06
275.08 K, Crystal 1	145.36
275.94 K, Crystal 1	145.56
276.77 K, Crystal 1	145.78
277.6 K, Crystal 1	145.99
278.44 K, Crystal 1	146.2
279.28 K, Crystal 1	146.42
280 K, Crystal 1	146.75
280.11 K, Crystal 1	146.67
280.95 K, Crystal 1	147.01
281.79 K, Crystal 1	147.27
282.63 K, Crystal 1	147.37
283.47 K, Crystal 1	147.57
284.3 K, Crystal 1	147.9
285.15 K, Crystal 1	148.03
285.99 K, Crystal 1	148.24
286.83 K, Crystal 1	148.69
287.67 K, Crystal 1	148.8
288.49 K, Crystal 1	148.98
289.33 K, Crystal 1	149.33
290 K, Crystal 1	149.41
290.17 K, Crystal 1	149.55
291.01 K, Crystal 1	149.81
291.85 K, Crystal 1	149.83
292.69 K, Crystal 1	150.13
293.53 K, Crystal 1	150.52
294.38 K, Crystal 1	150.46
295.22 K, Crystal 1	150.72
296.07 K, Crystal 1	150.87
296.92 K, Crystal 1	151.22
297.77 K, Crystal 1	151.31
298.15 K, Crystal 1	151.49
298.61 K, Crystal 1	151.62
299.46 K, Crystal 1	152.1
300 K, Crystal 1	151.99
300.74 K, Crystal 1	152.16
302.38 K, Crystal 1	152.51
304 K, Crystal 1	152.9
305.63 K, Crystal 1	153.27
307.25 K, Crystal 1	153.72
308.87 K, Crystal 1	154.08
310 K, Crystal 1	154.4
310.45 K, Crystal 1	154.47
312.03 K, Crystal 1	154.86
313.62 K, Crystal 1	155.15
315.2 K, Crystal 1	155.56
316.77 K, Crystal 1	155.95
318.35 K, Crystal 1	156.34
319.87 K, Crystal 1	156.72
320 K, Crystal 1	156.81
321.41 K, Crystal 1	157.11
322.95 K, Crystal 1	157.43
324.49 K, Crystal 1	157.89
325.96 K, Crystal 1	158.18
327.48 K, Crystal 1	158.02
328.97 K, Crystal 1	158.76
330 K, Crystal 1	159.14
330.46 K, Crystal 1	159.4
331.95 K, Crystal 1	159.74
333.42 K, Crystal 1	160.19
334.89 K, Crystal 1	160.55

Reference: the NIST ThermoML archive (doi:10.1016/j.jct.2019.01.021)
